Reference: article PMC11402852, “Genotoxicity of selected cannabinoids in human lymphoblastoid TK6 cells” (Archives of Toxicology, 2024)
Like-named read-outs stand apart in the source and are kept apart here.

Experiments:
TK6 cells [1] = experiment: Tubulin visualization; assay type: cell-based, human; conditions: 6 h; CBG 30 µM, CBD 15 µM, CBC 15 µM, CBN 15 µM; visually compared to control, not quantified
Experimental: For tubulin visualization, cells were treated with CBG 30 µM, CBD 15 µM, CBC 15 µM, CBDV 40 µM, and CBN 15 µM. The positive control was vincristine sulphate 0.0121 µM, and the solvent control was DMSO. Cells were treated for 6 h and then harvested. Slides were prepared with cytospin centrifugation. The cells were fixed in ice-cold methanol for 2 h. Following fixation, cells were permeabilized with 0.1% Tween20 in 1 × phosphate-buffered saline (PBS) for 5 min. Next, the anti-α-tubulin antibody was applied in 1:50 dilution. Antibody was diluted with 5% FCS in 1 × PBS. The antibody was incubated in a humid chamber at 4 °C for 24 h. Afterwards, the antibody was removed by washing slides twice with 0.5% Tween20 in 1 × PBS for 5 min. Nuclei were counterstained with Hoechst 33,258 (5 µg/mL, 3 min). The visualization was performed with a Keyence BZ-X800 microscope.

TK6 cells [2] = experiment: Mitotic disturbance assay; assay type: cell-based, human; conditions: 6 h, without S9; CBG 30 µM, CBD 15 µM, CBC 15 µM, CBDV 40 µM, CBN 15 µM; vs solvent control
Experimental: The cells were treated for 6 h with CBG 30 µM, CBD 15 µM, CBC 15 µM, CBDV 40 µM, and CBN 15 µM. The positive control was vincristine sulphate 0.0121 µM, and the solvent control was DMSO. For the experiments with or without the S9 mix (final concentration 0.25%), TK6 cells were treated with either CBDV 40 µM or vincristine sulphate 10 ng/mL for 6 h. DMSO with or without S9 mix was used as control. Further procedure was as described for micronucleus experiments, except with direct harvest after cannabinoid treatment without the incubation period with cytochalasin B. Two slides were evaluated with a Nikon Eclipse 55i fluorescent microscope for each experimental condition. The independent experiments were conducted three times.
The cells were counted in categories apoptosis, interphase, prophase, metaphase, anaphase-telophase, disturbed metaphase, and disturbed anaphase-telophase in 1000 cells. The mitotic index was calculated as a sum of the number of cells in prophase, metaphase, anaphase-telophase, disturbed metaphase, and disturbed anaphase-telophase in 1000 cells. Disturbed metaphase and disturbed anaphase-telophase were defined as deviating from the usual appearance of mitoses. Disturbed mitoses were assessed in 100 mitotic cells per slide.

[3] = system: human lymphoblastoid TK6 cells; experiment: Cytokinesis-block micronucleus (CBMN) assay; conditions: for BMDL (10th percentile): 10th percentile of BMD50 estimation; for BMDL (10th percentile) / BMDU (90th percentile) / Number of micronuclei with S9 mix vs without: 4 h; for BMDL (10th percentile) / BMDU (90th percentile): micronucleus data; for 4 h BMD50: 50% increased relative genotoxicity vs controls, from micronucleus data, without S9, Bayesian BMD analysis; for 4 h BMD50 / Micronucleus induction: 4 h treatment; for BMDU (90th percentile): 90th percentile of BMD50 estimation; for Number of micronuclei with S9 mix vs without: CBG 30 µM, CBD 15 µM, CBC 15 µM, CBDV 40 µM, CBN 15 µM, 0.25% S9 mix; for Micronucleus induction: without metabolic activation, at least one concentration, vs solvent control
TK6 cells [4] = experiment: Cell cycle analysis (flow cytometry, DAPI); assay type: cell-based, human
Experimental: The cells were treated with CBG 30 µM, CBD 15 µM, CBC 15 µM, CBDV 40 µM, and CBN 15 µM for 6 or 24 h. The positive control was vincristine sulphate in a concentration of 0.0121 µM for 6 h of exposure and 0.0061 µM for 24 h. The solvent control was DMSO. Furthermore, experiments with the addition of S9 mix were performed with CBDV. In these experiments, cells were treated with CBDV (40 µM) with or without 0.25% S9 mix for 6 h. DMSO with or without the S9 mix was used as control, and the positive control was the same as mentioned above. After the treatment, cells were collected, washed twice with phosphate buffered saline (PBS) and fixed with 70% ethanol for 30 min on ice. Following each described step above, cells were centrifuged at 1000 rpm, 5 min, and 4 °C. Lastly, cells were resuspended in 1% bovine serum albumin (BSA) in PBS solution and stained with DAPI in a final concentration of 1 µg/mL for 30 min on ice. The cell distribution in different cell cycle phases was analyzed with MACSQuant® Analyzer 16 Flow Cytometer using a 450/50 nm filter and MACSQuantify™ Software 2.13 (Miltenyi Biotec, Bergisch Gladbach, Germany). For each sample, 20 000 events were analyzed. Four independent experiments were performed for 6 h of treatment without metabolic activation. Three independent experiments were done for 24 h of treatment without metabolic activation and 6 h of treatment with metabolic activation.

[5] = frequent Cannabis smokers, inhalation, ref Newmeyer et al. [2016], cited from earlier work; for Cmax: read-out: Mean maximum concentration (Cmax) in blood
[6] = design: method as in Zhong et al. [2023]; conditions: depending on the cell line; downregulating CDK1, CDK2 and cyclin E; ref Zhong et al. [2023]; cited from earlier work
[7] = system: human lymphoblastoid TK6 cells; experiment: Kinetochore analysis of micronuclei; assay type: cell-based; conditions: 4 h; for Kinetochore (+) MNi, %: of 200 micronuclei, CBG 30 µM, CBD 15 µM, CBC 15 µM, CBDV 40 µM, CBN 15 µM, MMS 40 µM, vincristine 0.0121 µM, one experiment
Experimental: For kinetochore analysis, cells were treated for 4 h with CBG 30 µM, CBD 15 µM, CBC 15 µM, CBDV 40 µM, and CBN 15 µM. The positive controls were MMS 40 µM, and vincristine sulphate 0.0121 µM; the solvent control was DMSO. After 4 h of treatment, the culture medium was renewed, and cells were exposed for 24 h to the cytokinesis inhibitor cytochalasin B (3 μg/mL). Then, cells were harvested, and slides were prepared with cytospin centrifugation. The cells were fixed in ice-cold methanol for 2 h. Kinetochores were stained overnight with undiluted primary anti-centromere antibody at 37 °C followed by 1:20 diluted FITC-conjugated secondary antibody at 37 °C for 2 h. Nuclei were counterstained with Hoechst 33,258 (5 µg/mL, 3 min). The experiment was performed one time. Per compound, 200 micronuclei were evaluated for kinetochore signal presence (Fig. 3). The evaluation was performed with a Keyence BZ-X800 microscope. The slides used in kinetochore evaluation were also evaluated for the number of induced micronuclei as described in the above paragraph cytokinesis‑block micronucleus assay.

[8] = system: human lymphoblastoid TK6 cells; conditions: for 4 h BMD50 / BMDL (10th percentile) / BMDU (90th percentile): human, 4 h
[9] = system: human mesothelioma, cholangiocellular carcinoma and ovarian carcinoma cell lines; design: method as in earlier work; conditions: 24 h of treatment; correlates with decrease of cell percentage in S phase; ref Viereckl et al. [2022]; Colvin et al. [2022]; Sooda et al. [2023]; cited from earlier work
[10] = system: adult neural stem/progenitor cells; design: method as in Lourenço et al. ([2023]); conditions: 7 days of exposure; phase not indicated; ref Lourenço et al. ([2023]); cited from earlier work
[11] = system: human buccal cell line TR146; design: method as in Russo et al. ([2019]); conditions: TR146, after 3 and 24 h; ref Russo et al. ([2019]); cited from earlier work
[12] = design: method as in Hurley et al. ([2022]); conditions: epilepsy treatment in children, ref Hurley et al. ([2022]), cited from earlier work
[13] = design: method as in Peters et al. [2022]; conditions: after consuming medical cannabis oil, ref Peters et al. [2022], cited from earlier work
[14] = 6 h, without S9, CBG 30 µM, CBD 15 µM, CBC 15 µM, CBDV 40 µM, CBN 15 µM
[15] = treatment – control (basal level of micronuclei subtracted), same concentrations

| SMILES | Multipolar and monopolar tubulin aggregation (TK6 cells [1]) | BMDL (10th percentile) [3] [µM] | 4 h BMD50 [3] [µM] | BMDU (90th percentile) [3] [µM] | Number of micronuclei with S9 mix vs without [3] | Micronucleus induction [3] | Cell cycle distribution, 6 h (TK6 cells [4]; [14]) | Cmax [5] [nM] | Kinetochore (+) MNi, % [7] [%] | Kinetochore (+) induced MNi [7, 15] [%] | Micronucleus induction [8] | Number of micronuclei with S9 mix vs without [8] | 4 h BMD50 [8] [µM] | BMDL (10th percentile) [8] [µM] | BMDU (90th percentile) [8] [µM] | Kinetochore (+) induced MNi ([7]; human) [%] | further results |
| --- | --- | --- | --- | --- | --- | --- | --- | --- | --- | --- | --- | --- | --- | --- | --- | --- | --- |
| CCCCCc1cc(O)c2c(c1)OC(C)(C)c1ccc(C)cc1-2 [CBN, cannabinol] | observed more frequently | 2.7 | 8.4 | 16.9 | significant reduction in the number of micronuclei | significant induction of micronuclei | no significant changes in the normal cell cycle distribution | 37.4 | 46 | 63.3 | – | – | – | – | – | – | Mitotic index (TK6 cells [2]): significantly decreased the mitotic index; Cell cycle effect [6]: cell cycle arrest in either the G0/G1 phase or S phase |
| CCCCCc1cc(O)c(C/C=C(\C)CCC=C(C)C)c(O)c1 [CBG, cannabigerol] | – | – | – | – | – | – | – | 21.8 | – | – | significant induction of micronuclei | significant reduction in the number of micronuclei | 20.5 | 3.9 | 64.1 | 61.5 | Mean maximum concentration (Cmax) in blood [5]: 6.9 ng/mL; Cell cycle effect [9]: arresting cells in the G0/G1 phase |
| COS(C)(=O)=O [MMS, methyl methane sulfonate, reference compound] | – | – | – | – | – | – | – | – | 38 | 41.9 | – | – | – | – | – | – | – |
| C=C(C)[C@@H]1CCC(C)=C[C@H]1c1c(O)cc(CCC)cc1O [CBDV, cannabidivarin] | – | – | – | – | – | – | – | – | – | – | induced micronuclei only after metabolic activation | significant rise in micronuclei frequency | 15.3 | 1.4 | 102.9 | 69.8 | Cell cycle effect [10]: induced cell cycle arrest; Cell cycle distribution, 6 h (TK6 cells [4]; human, 6 h, 40 µM): slight non-significant rise in cell percentage in the G1 phase; Cell cycle distribution, absence or presence of metabolic enzymes (TK6 cells [4]; human, 6 h, 40 µM): cell accumulation in the G1 phase; DNA damage (comet assay) [11]: had the same effect on the cells as CBD; Mean plasma Cmax [12]: 7.4 ng/mL; Cmax ([12]; read-out: Mean plasma Cmax): 25.8 nM |
| CCCCCc1cc(O)c2c(c1)OC(C)(CCC=C(C)C)C=C2 (centres unmarked) [CBC, cannabichromene] | observed more frequently | 2.5 | 9.8 | 34.5 | reduced as well, but not significantly | significant induction of micronuclei | no significant changes in the normal cell cycle distribution | – | 48.5 | 69.7 | – | – | – | – | – | – | Cell cycle distribution (time not given) (TK6 cells [4]; TK6, CBC 15 µM, CBN 15 µM, 6 or 24 h): did not observe a change in cell cycle distribution; Mean Cmax concentration in plasma [13]: 6.6 ng/mL; Cmax ([13]; read-out: Mean Cmax concentration in plasma): 21 nM |
